Measured values as given in PubChem BioAssay AID248 (DTP/NCI, 2004).
Inconclusive results and toxic doses are left out. No stated cut-off is given here; in the data, active means T/C of 150% or more; inactive means T/C below 125%.

Test system: L1210 leukemia ip in BDF1 mice, survival T/C
Assay: NCI In Vivo Anticancer Drug Screen. Data for tumor model L1210 Leukemia (intraperitoneal) in B6D2F1 (BDF1) mice
Conditions: endpoint: mean survival time, higher = longer survival
How it was run: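 Value reflects the ratio of survival in compound-treated mice to survival in vehicle-treated controls, with both groups carrying the same transplanted tumor.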

[1] = dose: 50.0 mg/kg/injection, schedule: Q01DX001 (ip), vehicle: saline
[2] = dose: 100.0 mg/kg/injection, schedule: Q01DX001 (ip), vehicle: saline
[3] = dose: 400.0 mg/kg/injection, schedule: Q01DX001 (ip), vehicle: saline
[4] = dose: 100.0 mg/kg/injection, schedule: Q01DX009 (ip), vehicle: saline with Tween-80
[5] = dose: 100.0 mg/kg/injection, schedule: Q04DX003 (ip), vehicle: saline
[6] = dose: 200.0 mg/kg/injection, schedule: Q01DX009 (ip), vehicle: saline with Tween-80
[7] = dose: 200.0 mg/kg/injection, schedule: Q04DX003 (ip), vehicle: saline
[8] = dose: 400.0 mg/kg/injection, schedule: Q01DX009 (ip), vehicle: saline with Tween-80
[9] = dose: 400.0 mg/kg/injection, schedule: Q04DX003 (ip), vehicle: saline
[10] = dose: 100.0 mg/kg/injection, schedule: Q04DX002 (ip), vehicle: saline with Tween-80
[11] = dose: 200.0 mg/kg/injection, schedule: Q04DX002 (ip), vehicle: saline with Tween-80
[12] = dose: 400.0 mg/kg/injection, schedule: Q04DX002 (ip), vehicle: saline with Tween-80
[13] = dose: 50.0 mg/kg/injection, schedule: Q01DX001 (ip), vehicle: carboxymethylcellulose (CMC)
[14] = dose: 100.0 mg/kg/injection, schedule: Q04DX003 (ip), vehicle: saline with Tween-80
[15] = dose: 200.0 mg/kg/injection, schedule: Q04DX003 (ip), vehicle: saline with Tween-80
[16] = dose: 400.0 mg/kg/injection, schedule: Q04DX003 (ip), vehicle: saline with Tween-80
[17] = dose: 100.0 mg/kg/injection, schedule: Q01DX009 (ip), vehicle: Klucel (hydroxypropylcellulose) (HPC)
[18] = dose: 200.0 mg/kg/injection, schedule: Q01DX009 (ip), vehicle: Klucel (hydroxypropylcellulose) (HPC)
[19] = dose: 400.0 mg/kg/injection, schedule: Q01DX009 (ip), vehicle: Klucel (hydroxypropylcellulose) (HPC)
[20] = dose: 100.0 mg/kg/injection, schedule: Q04DX003 (ip), vehicle: Klucel (hydroxypropylcellulose) (HPC)
[21] = dose: 200.0 mg/kg/injection, schedule: Q04DX003 (ip), vehicle: Klucel (hydroxypropylcellulose) (HPC)
[22] = dose: 400.0 mg/kg/injection, schedule: Q04DX003 (ip), vehicle: Klucel (hydroxypropylcellulose) (HPC)
[23] = dose: 100.0 mg/kg/injection, schedule: Q01DX001 (ip), vehicle: carboxymethylcellulose (CMC)
[24] = dose: 200.0 mg/kg/injection, schedule: Q01DX001 (ip), vehicle: carboxymethylcellulose (CMC)
[25] = dose: 400.0 mg/kg/injection, schedule: Q01DX001 (ip), vehicle: carboxymethylcellulose (CMC)

Measured: T/C

CC1C(=O)c2cc3c(cc2CCN(C)Cc2c1ccc1c2OCO1)OCO3 (centres undefined)
inactive: dose: 5.0 mg/kg/injection, schedule: Q01DX001 (ip), vehicle: saline 103 % of control | dose: 9.5 mg/kg/injection, schedule: Q01DX001 (ip), vehicle: other 93 % of control | dose: 10.0 mg/kg/injection, schedule: Q01DX001 (ip), vehicle: saline 103 % of control | dose: 19.0 mg/kg/injection, schedule: Q01DX001 (ip), vehicle: other 104 % of control | dose: 20.0 mg/kg/injection, schedule: Q01DX001 (ip), vehicle: saline 101 % of control | dose: 40.0 mg/kg/injection, schedule: Q01DX001 (ip), vehicle: saline 101 % of control

C=CCNC(=S)NNC(=O)CCCC(=O)NNC(=S)NCC=C
inactive: [1] 90 % of control | [2] 93 % of control | [3] 102 % of control

O=c1sc2ccccc2n1CCSCCn1c(=S)sc2ccccc21
inactive: [2] 90 % of control | [3] 93 % of control

O=C1CC(NCCO)C(=O)NN1 (centres undefined)
inactive: dose: 100.0 mg/kg/injection, schedule: Q01DX009 (ip), vehicle: saline 101 % of control | dose: 200.0 mg/kg/injection, schedule: Q01DX009 (ip), vehicle: saline 97 % of control | dose: 400.0 mg/kg/injection, schedule: Q01DX009 (ip), vehicle: saline 100 % of control

COc1cc(OC)c(C(=O)c2ccccc2[N+](=O)[O-])c(OC)c1
inactive: [4] 91 % of control | [5] 99 % of control | [6] 92 % of control | [7] 99 % of control | [8] 96 % of control | [9] 100 % of control

COc1ccc(N2C=C(c3ccccc3)CC2=O)cc1
inactive: dose: 100.0 mg/kg/injection, schedule: Q04DX002 (ip), vehicle: Klucel (hydroxypropylcellulose) (HPC) 94 % of control | dose: 200.0 mg/kg/injection, schedule: Q04DX002 (ip), vehicle: Klucel (hydroxypropylcellulose) (HPC) 94 % of control | dose: 400.0 mg/kg/injection, schedule: Q04DX002 (ip), vehicle: Klucel (hydroxypropylcellulose) (HPC) 97 % of control

CN(C)c1ccc(/C=N/NC(=O)c2cnc3ccccc3c2)cc1
inactive: [10] 102 % of control | [11] 97 % of control | [12] 94 % of control

ClCCN(CCCl)c1ccc(CNCCCNCc2ccc(N(CCCl)CCCl)cc2Cl)c(Cl)c1
inactive: [13] 93 % of control

CSc1nc([N+](C)(C)C)cc([N+](C)(C)C)n1
inactive: dose: 6.0 mg/kg/injection, schedule: Q01DX Z (ip), vehicle: saline 91 % of control

Cn1c2ccccc2c2nnc(SCCN3CCOCC3)nc21
inactive: [10] 97 % of control | [11] 93 % of control | [12] 101 % of control

CCOC(=O)Nc1cc(NC(=O)OCC)cc([N+](=O)[O-])c1
inactive: [14] 110 % of control | [15] 102 % of control | [16] 89 % of control

C/C=C\c1ccc(OC(=O)Nc2ccc(C(=O)OCC)cc2)c(OC)c1
inactive: [17] 94 % of control | [18] 94 % of control | [19] 89 % of control

CC(C)OC(CCCl)c1ccccc1 (centres undefined)
inactive: [17] 91 % of control | [20] 96 % of control | [18] 96 % of control | [21] 102 % of control | [19] 95 % of control | [22] 96 % of control

COc1cc(C(=O)O)ccc1[N+](=O)[O-]
inactive: [14] 102 % of control | [15] 102 % of control | [16] 96 % of control

CCC(=O)c1ccc(N=Nc2c(N)nc(N)[nH]c2=O)cc1
inactive: [23] 101 % of control | [24] 108 % of control | [25] 103 % of control

C/C(=N/N=C(N)N)c1cccnc1
inactive: dose: 15.0 mg/kg/injection, schedule: Q01DX Z (ip), vehicle: saline 106 % of control | dose: 30.0 mg/kg/injection, schedule: Q01DX Z (ip), vehicle: saline 106 % of control | dose: 60.0 mg/kg/injection, schedule: Q01DX Z (ip), vehicle: saline 108 % of control | dose: 120.0 mg/kg/injection, schedule: Q01DX Z (ip), vehicle: saline 93 % of control

C=C1C(=O)OC2CC(C)C3CC(=O)C(C)=C3C(O)C12 (centres undefined)
inactive: dose: 25.0 mg/kg/injection, schedule: Q01DX009 (ip), vehicle: saline 94 % of control | dose: 50.0 mg/kg/injection, schedule: Q01DX009 (ip), vehicle: saline 98 % of control

c1ccc(CCc2nccc3ccccc23)cc1
inactive: dose: 75.0 mg/kg/injection, schedule: Q01DX001 (ip), vehicle: saline 96 % of control | dose: 150.0 mg/kg/injection, schedule: Q01DX001 (ip), vehicle: saline 97 % of control

CSc1nnc(-c2ccc(OCCOc3ccc(C(C)(C)CC(C)(C)C)cc3)cc2)s1
inactive: [14] 89 % of control | [15] 94 % of control | [16] 91 % of control

CN(C)CCCN1CC2C3CCCCC3=C3CCCCC3C2C1 (centres undefined)
inactive: [1] 98 % of control

Clc1ccc2c(NC3CCC(NC4CCCCC4)CC3)ccnc2c1 (centres undefined)
inactive: dose: 7.0 mg/kg/injection, schedule: Q01DX Z (ip), vehicle: carboxymethylcellulose (CMC) 102 % of control | dose: 10.0 mg/kg/injection, schedule: Q01DX Z (ip), vehicle: carboxymethylcellulose (CMC) 96 % of control | dose: 16.0 mg/kg/injection, schedule: Q01DX Z (ip), vehicle: carboxymethylcellulose (CMC) 98 % of control

Cc1ccc(S(=O)(=O)OC2CS(=O)(=O)C2)cc1
inactive: [4] 100 % of control | [14] 105 % of control | [6] 95 % of control | [15] 100 % of control | [8] 105 % of control | [16] 97 % of control

CCOC(=O)C1CCN(S(=O)(=O)c2ccc(C)cc2)c2cc(Cl)ccc2C1=O (centres undefined)
inactive: [17] 93 % of control | [20] 96 % of control | [18] 93 % of control | [21] 93 % of control | [19] 101 % of control | [22] 94 % of control

c1cncc(-c2ncnc3c2Cc2ccccc2-3)c1
inactive: [20] 97 % of control | [21] 111 % of control

CCOC(=O)/C(C#N)=C\c1cc(=O)c(OC)co1
inactive: [5] 98 % of control | [7] 104 % of control | [9] 102 % of control

CCCCCCCC(=O)N1C(C)CCCC1C (centres undefined)
inactive: dose: 100.0 mg/kg/injection, schedule: Q04DX002 (ip), vehicle: saline 114 % of control | dose: 200.0 mg/kg/injection, schedule: Q04DX002 (ip), vehicle: saline 111 % of control | dose: 400.0 mg/kg/injection, schedule: Q04DX002 (ip), vehicle: saline 104 % of control

CCOc1ccccc1NC(=O)c1cccc(F)c1
inactive: [4] 101 % of control | [6] 104 % of control | [8] 101 % of control

C=C1CC(C)(c2ccc(CCCC(=O)OCC)cc2)OC1=O (centres undefined)
inactive: dose: 50.0 mg/kg/injection, schedule: Q01DX009 (ip), vehicle: saline with Tween-80 102 % of control | [4] 102 % of control | [14] 103 % of control | [6] 88 % of control | [15] 97 % of control

CCOC(=O)NC(N)=O
inactive: [13] 92 % of control | dose: 75.0 mg/kg/injection, schedule: Q01DX009 (ip), vehicle: saline 100 % of control | [23] 97 % of control | [20] 110 % of control | [5] 107 % of control | dose: 150.0 mg/kg/injection, schedule: Q01DX009 (ip), vehicle: saline 103 % of control | [24] 95 % of control | [21] 98 % of control | [7] 98 % of control | dose: 300.0 mg/kg/injection, schedule: Q01DX009 (ip), vehicle: saline 100 % of control | [25] 92 % of control | [22] 98 % of control | [9] 102 % of control

O=C(Nc1cc(C(F)(F)F)ccc1Cl)Nc1cc(Cl)c(Oc2ccc(Cl)cc2)cc1S(=O)(=O)O
inactive: dose: 100.0 mg/kg/injection, schedule: Q04DX003 (ip), vehicle: saline sonified 105 % of control | dose: 200.0 mg/kg/injection, schedule: Q04DX003 (ip), vehicle: saline sonified 100 % of control

Cc1ccc(N(C=O)N=O)cc1
inactive: [2] 101 % of control | dose: 200.0 mg/kg/injection, schedule: Q01DX001 (ip), vehicle: saline 98 % of control
